{
  "source": "patent US20120196918A1",
  "about": "“PREVENTING ISLET INFLAMMATION AND DYSFUNCTION AND MAINTAINING PROPER GLUCOSE LEVELS BY CONTROLLING eIF5A AND ITS HYPUSINATION” (priority 2009, published 2012)",
  "key": {"[1]": {"tested_on": "STZ-treated C57BL/6J mice", "experiment": "Multiple low-dose streptozotocin (STZ) diabetes model in C57BL/6J mice", "assay_type": "in vivo, mouse", "method": "(§1) To test the role of eIF5A in cytokine-mediated islet dysfunction, efforts were made to identify a mouse model of islet inflammation. The multiple low dose streptozotocin (STZ) model, in which mice are subjected to five daily intraperitoneal doses (at 55 mg/kg body weight) of STZ, is considered to provoke local islet inflammation and cytokine release, in part through the recruitment of CD11c+ dendritic cells that release pro-inflammatory cytokines in the area of STZ-induced cellular destruction (27 and 28).\nC57BL/6J mice were injected intraperitoneally with either stabilized siRNA against eIF5A (si-eIF5A) or control siRNA (si-Control) daily for three days, then subjected to the multiple low-dose STZ protocol (see schematic in FIG. 1a). […] The effect of administering si-eIF5A on islet viability following STZ treatment was determined by performing immunohistochemical analysis of the pancreata of mice. […] To quantify the differences in islet mass between STZ-treated and untreated animals, morphometry of insulin-stained pancreatic sections was performed.\nBased on the observed data, if hypusination of eIF5A by DHS is required for cytokine responsiveness in islets, then inhibition of DHS in vivo should protect against low dose STZ diabetes. To test this, C57BL/6J mice were treated with GC7 or vehicle and then subjected to low dose STZ injections. GC7 was delivered in one of two different ways: either by daily bolus intraperitoneal injections (4 mg/kg/day) or by continuous subcutaneous delivery (40 μg/kg/h) using implanted osmotic pumps. A protocol similar to that shown in FIG. 1A was employed in these studies, with GC7 injections or pump implants starting 3 days prior to STZ injections.\nSmall interfering RNA (siRNA) studies: Stabilized siRNAs for intraperitoneal injections were custom synthesized by Dharmacon using the siSTABLE® modification. Groups of 10 week-old C57BL/6J male mice (from Jackson Labs) received daily intraperitoneal injections of 1.6 mg/kg siRNA prepared in 0.9% saline or vehicle alone (0.9% saline) for 3 days. For in vitro studies, islets from each group of injected mice were harvested on the fourth day and pooled prior to analysis. Injections with each siRNA were performed on at least 3 different occasions. siRNA sequences were as follows: siControl, 5′-[…]-3′; si-eIF5A, 5′-[…]-3′. For siRNA studies in the rat β cell-derived line INS-1 (832/13), cells were transfected with a SMART Pool® siRNA against rat eIF5A1 (Dharmacon, #L-083855-01) or non-targeting control siRNA #1 (Dharmacon) using DharmaFECT® transfection reagent (Dharmacon).\nImmunostaining and morphometric assessment of β cell mass: Immunostaining of pancreatic sections proceeded as described previously (72). For assessment of islet cell death in pancreatic sections, the technique of terminal deoxynucleotidyl transferase dUTP nick end labeling (TUNEL) was performed using biotinylated 16-dUTP (Roche) and Texas Red Neutravidin (Invitrogen). Digital images of each islet at 40× magnification were acquired using an Axio-Observer D1 microscope (Zeiss) inverted fluorescent microscope equipped with a high-resolution color camera. TUNEL-positive/insulin-positive nuclei were counted manually by an observer blinded to sample identity, and data were re-coded as the average number of TUNEL-positive nuclei per islet. β cell mass was calculated as described previously (73), but with some modifications. Briefly, pancreata from 3 mice per treatment group were rapidly dissected and weighed, fixed in 4% paraformaldehyde, paraffin-embedded, and longitudinally sectioned. Three sections/pancreas (approx. 75 μm apart) were subsequently immunostained for insulin and counterstained with hematoxylin as described (74), and digital images of each section at 10× magnification were acquired on an Axio-Observer Z1 microscope (Zeiss) fitted with an AxioCam high resolution color camera. […]"}, "iNOS [2]": {"tested_on": "iNOS", "conditions": "cited from earlier work"}, "eIF5A": {"tested_on": "eIF5A", "experiment": "eIF5A nuclear-to-cytoplasmic translocation in INS-1 cells (immunofluorescence)", "assay_type": "cell-based, rat", "conditions": "pretreatment, then cytokines 4 h", "method": "Given the striking retention of Nos2 transcripts in the absence of eIF5A-Hyp, it was of interest to determine whether the intracellular distribution of eIF5A accounts for its effect on Nos2 nucleo-cytoplasmic shuttling. Immunofluorescence of eIF5A in fixed INS-1 cells, were thus performed. […] Upon treatment of cells with cytokines, there was a shift in the eIF5A distribution pattern from the nucleus to the cytoplasm.\nCytokine and inhibitor incubation studies: For cytokine incubation assays, a 1000× cocktail of cytokines containing 5 μg/ml IL1β, 10 μg/ml TNFα, and 100 μg/ml IFNγ (all prepared in 0.1% BSA in Tris-buffered saline) was applied at 1× final concentration to groups of 50 islets or 1×10^6 INS-1 (832/13) cells for a total of 4 h at 37° C. For GC7 incubation studies, GC7 was prepared at a stock concentration of 125 mM in 10 mM acetic acid and applied to cultures of 50 islets or 1×10^6 INS-1 cells to obtain the final concentrations indicted in the figures. […]\nImmunofluorescence: Immunofluorescence of INS-1 cells proceeded essentially as described previously (71), using primary antibodies to eIF5A1 and secondary anti-mouse Alexa-488-conjugated antibody (Invitrogen), or by direct visualization of GFP fusion proteins at 488 nm. […] Quantitation of cytoplasic-to-nuclear ratios of eIF5A staining was performed using Axio-Vision Software, v. […]"}, "Nos2 mRNA": {"tested_on": "Nos2 mRNA", "experiment": "Nuclear export of Nos2 mRNA, subcellular fractionation of cytokine-treated INS-1 cells", "assay_type": "cell-based, rat", "method": "Subcellular fractionation studies: Nuclear and cytoplasmic fractions of 1×10^6 cytokine-treated INS-1 cells exposed to vehicle, leptomycin B (20 ng/ml), or GC7 (100 μM) were prepared using the method of Dignam, et al. (76). Total RNA was isolated from nuclear and cytoplasmic fractions using the RNeasy® RNA isolation kit (Qiagen).\nQuantitative RT-PCR: Five micrograms of total RNA from islets or INS-1 cells were reverse-transcribed as detailed previously (77). cDNA was subjected to quantitative PCR using SYBR Green-based technology and published primers for mouse Ins1/2 pre-mRNA (78) and QuantiTech® primers (Qiagen) for all other mouse genes. The Assay on Demand® kit (Applied Biosystems) was used to amplify rat genes in INS-1 cells and human genes in human islets. Thermal cycling was performed according to manufacturer's instructions, and the identity of each PCR product was verified by automated sequencing. All samples were corrected for total input RNA as quantitated by an Experion® (Bio-Rad) bioanalyzer. All data represent the average of triplicate determinations from at least 3 independent experiments."}, "iNOS [3]": {"tested_on": "iNOS", "experiment": "Cytokine-induced iNOS protein in INS-1 cells (immunoblot)", "assay_type": "cell-based, rat", "conditions": "increasing inhibitor concentrations overnight, cytokines 4 h", "from_the_text": "eIF5A1 and eIF5A2 are the only proteins known to contain the unique amino acid hypusine at position 50. Hypusine is formed as a posttranslational modification of residue Lys50 in a reaction requiring spermidine and catalyzed by the sequential actions of the enzymes deoxyhypusine synthase (DHS) and deoxyhypusine hydroxylase (DOHH) (Chen, K Y, and Liu, A Y. Biochemistry and function of hypusine formation on eukaryotic initiation factor 5A. Biol Signals. 1997; 6(3):105-109). […] To further investigate the mechanism of eIF5A-regulated translation of Nos2, studies were performed following overnight incubation of cells with mimosine (an inhibitor of DOHH) and GC7 (an inhibitor of DHS). […] Similar data using GC7 were obtained in primary mouse islets (data not shown) and in human islets (FIGS. 5F and 5G).\nBecause GC7 is known to be inactivated by the action amine oxidases, which are abundant in serum, typical studies with GC7 in the literature have used aminoguanidine to inhibit amine oxidases (16). […] To rule out possible adverse effects of GC7 on cell viability, quantitative 2 color fluorescence analysis of live (calcein-AM-positive) and dead (ethidium homodimer-1-positive) cells were performed using fluorescence cytometry.\nCytokine and inhibitor incubation studies: For cytokine incubation assays, a 1000× cocktail of cytokines containing 5 μg/ml IL1β, 10 μg/ml TNFα, and 100 μg/ml IFNγ (all prepared in 0.1% BSA in Tris-buffered saline) was applied at 1× final concentration to groups of 50 islets or 1×10^6 INS-1 (832/13) cells for a total of 4 h at 37° C. For GC7 incubation studies, GC7 was prepared at a stock concentration of 125 mM in 10 mM acetic acid and applied to cultures of 50 islets or 1×10^6 INS-1 cells to obtain the final concentrations indicted in the figures. Where needed, GC7 was protected from amine oxidases in serum by addition of 1 mM aminoguanidine (Sigma). Cells were incubated with GC7 overnight (˜16 h) at 37° C. prior to analysis. Cells were exposed to Leptomycin B (Cayman Chemicals) for 3 hours; leptomycin B was prepared at a 1000× stock concentration of 20 μg/ml in ethanol.\nImmunoblot and nitrite and iNOS assays: Whole cell extracts were resolved by electrophoresis on a 4-20% SDS-polyacrylamide gel, followed by immunoblot using anti-eIF5A1, anti-eIF5A2, anti-iNOS, anti-GFP, or anti-actin primary antibodies and fluorophore-labeled secondary antibodies. Immunoblots were visualized using the Li-Cor® Odyssey® system (Li-Cor Biosciences) and quantitated by scanning fluorometry using Odyssey Imaging v. […] Nitrite was quantitated by measuring nitric oxide-derived nitrite from INS-1 cell culture medium using the Griess reagent (Promega) according to the manufacturer's recommendations. iNOS activity was measured using a commercially available kit (Cayman)."}, "[4]": {"tested_on": "STZ-treated NOD/Scid-(IL-2Rγ-null) mice", "experiment": "Multiple low-dose STZ model in immune-deficient NOD/Scid-(IL-2Rγ-null) mice", "assay_type": "in vivo, mouse", "conditions": "multiple low-dose STZ (data not shown for si-eIF5A)", "method": "as §1\nAs noted, low-dose STZ-induced islet dysfunction involves at least two mechanisms: an inflammatory mechanism that is dependent upon cytokine release from immune cells and a direct toxic mechanism on the islet itself. […] Next, islets from 3 C57BL/6J mice per group 24 h after the initial STZ treatment were isolated and pooled and their iNOS content determined by immunoblot. […]\nStudies in vivo: Daily STZ injections to groups of 10 week-old C57BL/6J and NOD/Scid-(IL-2Rγ-null) mice proceeded as described previously (30) at a dose of 55 mg STZ per kg mouse weight for 5 days. […] Serum was analyzed using a Luminex system (Millipore) and a mouse cytokine/chemokines Panel 1 mutliplex kit (Millipore)."}},
  "data": [
    {"compound": "5′-AAAGUCGACCUUCAGUAAGGA-3′ (stabilizing modifications, further chemistry not given here) [si-Control, control siRNA, stabilized]", "values": [
      {"measurement": "average fasting blood glucose", "setting": "[1]; siRNA 1.6 mg/kg i.p. daily for 3 days, then multiple low-dose STZ, day 7", "value": 159, "unit": "mg/dL"},
      {"measurement": "reduction of β cell mass compared to non-STZ-treated controls", "setting": "[1]; siRNA i.p., multiple low-dose STZ, morphometry of insulin-stained sections", "value": 2.8, "unit": "fold"}
    ]},
    {"compound": "N=C(N)NN", "note": "[aminoguanidine]", "values": [
      {"measurement": "inhibition of iNOS catalytic activity (literature)", "setting": "iNOS [2]", "value": "effective inhibitor of iNOS catalytic activity"}
    ]},
    {"compound": "CCC(=C/[C@H](C)C/C=C/C(C)=C/[C@@H](C)C(=O)[C@@H](C)[C@H](O)[C@@H](C)C/C(C)=C/C(=O)O)/C=C/[C@@H]1OC(=O)C=C[C@@H]1C", "note": "[leptomycin B]", "values": [
      {"measurement": "cytokine-induced translocation of eIF5A", "setting": "eIF5A", "value": "failed to induce the nuclear to cytoplasmic translocation of eIF5A"},
      {"measurement": "Nos2 export blocked", "setting": "Nos2 mRNA; cytokine-treated INS-1 cells", "value": "about 50%"},
      {"measurement": "distribution of mRNAs between nuclear and cytoplasmic fractions", "setting": "Nos2 mRNA; cytokine-treated, GC7 100 μM overnight or leptomycin B 20 ng/ml 3 h", "value": "relative retention of Nos2, Actb, and Nfkb1 (but not Gapdh) in the nuclear fraction"}
    ]},
    {"compound": "NC(Cn1ccc(=O)c(O)c1)C(=O)O", "note": "(stereo not shown) [mimosine]", "values": [
      {"measurement": "iNOS protein after cytokines", "setting": "iNOS [3]", "value": "dose-dependent attenuation"}
    ]},
    {"compound": "IL-1Ra: interleukin-1 receptor antagonist, the IL-1Ra anakinra", "values": [
      {"measurement": "glucose intolerance in IPGTT with IL-1Ra", "setting": "[1]; concurrent IL-1Ra treatment, multiple low-dose STZ", "value": "attenuated glucose intolerance only in immune-competent mice"},
      {"measurement": "serum IL-6 levels", "setting": "[1]; concurrent treatment with STZ", "value": "dramatic drop in serum IL-6 levels"},
      {"measurement": "protection against glucose intolerance", "setting": "[4]", "value": "did not protect against glucose intolerance"}
    ]}
  ]
}
